Assay results taken from patent US9422308B2, “Derivatives of docosahexaenoylethanolamide and uses thereof” (The United States of America, as represented by the …, priority 2012, dated 2016).
Where “and” joins values, the source holds several entries; their conditions need not be identical. Equal values may be shown once.

How the values were obtained:
[1] = target: T1, FAAH (Homo sapiens, UniProt O00519); experiment: time course FAAH enzyme assay; assay type: in vitro ADME; details: Conc. 1 mM, 0.1 U of FAAH, 37° C., pH=9.0
T1 sequence (O00519 1-579): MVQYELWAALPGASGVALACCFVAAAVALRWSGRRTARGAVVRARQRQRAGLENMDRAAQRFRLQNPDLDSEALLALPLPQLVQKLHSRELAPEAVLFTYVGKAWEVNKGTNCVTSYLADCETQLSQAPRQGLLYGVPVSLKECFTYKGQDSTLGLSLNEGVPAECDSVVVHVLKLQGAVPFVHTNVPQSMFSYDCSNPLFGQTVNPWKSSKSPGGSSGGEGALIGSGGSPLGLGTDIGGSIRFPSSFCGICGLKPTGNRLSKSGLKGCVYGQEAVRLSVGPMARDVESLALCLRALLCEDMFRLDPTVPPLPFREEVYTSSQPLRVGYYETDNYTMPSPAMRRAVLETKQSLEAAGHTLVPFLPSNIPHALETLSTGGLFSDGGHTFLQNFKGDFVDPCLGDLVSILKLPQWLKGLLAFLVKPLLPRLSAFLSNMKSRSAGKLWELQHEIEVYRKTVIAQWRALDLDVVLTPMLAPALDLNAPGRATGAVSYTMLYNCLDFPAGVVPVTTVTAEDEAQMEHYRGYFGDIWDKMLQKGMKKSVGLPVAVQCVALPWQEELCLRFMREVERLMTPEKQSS
Protocol: Method development: The signal was optimized for each compound by ESI positive or negative ionization mode. A MS2 SIM scan was used to optimize the precursor ion and a product ion analysis was used to identify the best fragment for analysis and to optimize the collision energy.
Analysis: Samples were analyzed by LC/MS/MS using a API 3000 coupled with an Shimadzu HPLC and a CTC PAL chilled autosampler, all […] controlled by Analyst software (ABI). After separation on a C18 reverse phase HPLC column (Agilent, Waters, or equivalent). Mobile phase A was 0.1% AcOH in water. Mobile phase B was 0.1% AcOH in methanol. The flow rate was 0.6 mL/min. The gradient program included a 0.5 min hold at 30% B (the starting conditions), followed by a gradient to 100% B over 2.5 min and a 1 min hold at 100% B. The column was then returned to starting conditions and equilibrated over 1.25 min.
Assay Protocol: Assays were performed at 37° C. at pH=9.0 and involved the use of 0.1 U of FAAH. […] Reaction was terminated after an appropriate time by using protein precipitation treatment with acetonitrile (3:1, v/v).

[2] = system: cortical neurons; experiment: neurite growth of embryonic mouse neurons (total neurite length/neuron, MAP2 immunostaining); assay type: cell-based; details: for effect with respect to cortical neurite growth as compared to DHA: FIGS. 1, 2; for dosage at which activity is exhibited as compared to DHA and synaptamide: dosages 10^-5 nM to 10 nM, FIG. 1
Protocol: To obtain embryonic mouse neurons for analysis, pregnant female mice were killed by cervical dislocation after exposure to CO2 inhalation. Embryonic neurons were prepared from E18 or P0 mouse hippocampi or cortex and cultured as described previously (Calderon and Kim, J. Neurochem., 90(4):979-88 (2004), errata in J Neurochem., September; 90(6):1540 (2004)), with slight modification. Briefly, hippocampi or cotices were dissected and dissociated by a method using either 0.25% trypsin (Gibco Invitrogen Corporation, Grand Island, N.Y.) in Hank's balanced salt solution (HBSS) or papain (20-30 U/mL) in dissociation media containing cysteine at 37° C. for 15 min. After the dissociation solution was aspirated off, cells were washed with same volume of HBSS, suspended in neurobasal medium (Gibco) containing 2% B27 supplement (Gibco), 1% glutamine/glutamax mix (1:4) (Gibco), 100 U/ml penicillin (Gibco) and 100 μg/ml streptomycin (Gibco), and seeded on poly-D-lysine chambered slides (Lab-Tek, Naperville, Ill.) at a density of 30,000 cells/cm^2. On the second day after seeding, the cells were treated with fatty acids, synaptamide or one of Compounds 1-50 for 48 h. Docosahexaenoic acid (DHA) and oleic acid (OA) were complexed with fatty acid-free bovine serum albumin (BSA; Sigma, St Louis, Mo.) in the presence of α-tocopherol (Sigma) under an argon atmosphere and darkness to prevent oxidation of the fatty acids. The mixture was mixed with fresh Neurobasal medium containing B27 supplement, glutamine/glutamax mix and antibiotics. Final concentrations of α-tocopherol and BSA in the culture medium were 40 μM and 0.01%, respectively. Alternatively, DHA, OA, synaptamide, or one of Compounds 1-50 were dissolved in DMSO and applied directly together with α-tocopherol. In such case, the final concentration of DMSO is less than 0.005%. All stock solutions were aliquoted under argon and stored at −70° C.
Cells were fixed with […] (Sigma) in PBS (pH 7.4) for 30 min. After permeabilization with 0.1% Triton X-100 (Sigma), cells were blocked for 1 h at 37° C. with PBS containing 10% goat serum (Gibco), and then incubated with the primary antibody against microtubule-associated protein (MAP2, mouse monoclonal 1:250; Sigma). After washing with PBS, cells were incubated with the corresponding Cy2-, Cy3-conjugated secondary antibody (Jackson Immunoresearch Laboratories Inc., West Grove, Pa.). For the nuclear staining, 0.06% 4,6-Diamidino-2-Phenylindole (Sigma) was used. After immunostaining, images were collected using an inverted motorized 1×81 Olympus (Melville, N.Y.) and the neurite length was analyzed with Metamorph software (Molecular Devices Corporation, Downingtown, Pa.). To minimize bias, neurons were evaluated blindly without the knowledge of sample identity. Four to six fields/well were chosen at random and only non-clustered neurons were evaluated to ensure the precision of the measurements. From each well, over 100 neurons were evaluated at 20× magnification for total neurite length/neuron. The data were obtained from triplicate wells and the experiments were repeated at least three times.
FIG. 2 provides graphical results of the data shown in Table 2, expressed as total neurite length per neuron. FIG. 3 provides graphical results of these experiments for compounds 11-50 (having designations as provided in Table 1, above), expressed as relative neurite length as compared to untreated controls. FIG. 4 provides graphical results of these experiments for compounds 1-10 (having designations as provided in Table 1, above), as applied to hippocampal neurons.
An additional assay was performed in which Compounds (A8), 4(A10), and 7(A9) were applied at varying dosages (from 10^−5 nM to 10 nM; 10^−5 nM, 10^−4 nM, 10^−2 nM, 0.1 nM, 1 nM, and 10 nM) as compared to DHA, synaptamide, and oleic acid. Neurite growth was measured at each dosage. Results of this assay are provided at FIG. 1.

[3] = cortical neurons, 10 nM (FIG. 2), 48 h

Compound: CCCCC/C=C\C/C=C\C/C=C\C/C=C\CCCC(=O)NCCO [AEA, anandamide]
- % remaining ([1]; 0 min): 74%
- % remaining ([1]; 30 min): 1%
- % remaining ([1]; 60 min): 1%

Compound: CC/C=C\C/C=C\C/C=C\C/C=C\C/C=C\C/C=C\CCC(=O)NCCCCO [Compound 2, (4Z,7Z,10Z,13Z,16Z,19Z)—N-(4-hydroxybutyl)docosa-4,7,10,13,16,19-hexaenamide]
- Neurite Length/Neuron (mean) [2, 3]: 6.9 μm

Compound: CC/C=C\C/C=C\C/C=C\C/C=C\C/C=C\C/C=C\CCC(=O)NCCCO [Compound 3, (4Z,7Z,10Z,13Z,16Z,19Z)—N-(3-hydroxypropyl)docosa-4,7,10,13,16,19-hexaenamide]
- Neurite Length/Neuron (mean) [2, 3]: 3.8 μm

Compound: CC/C=C\C/C=C\C/C=C\C/C=C\C/C=C\C/C=C\CCC(=O)NCCN1CCOCC1 [Compound 4, (4Z,7Z,10Z,13Z,16Z,19Z)—N-(2-morpholinoethyl)docosa-4,7,10,13,16,19-hexaenamide]
- Neurite Length/Neuron (mean) [2, 3]: 20.8 μm
- effect with respect to cortical neurite growth as compared to DHA ([2]; cortical neurons): superior effect
- dosage at which activity is exhibited as compared to DHA and synaptamide [2]: activity at significantly lower dosages

Compound: CC/C=C\C/C=C\C/C=C\C/C=C\C/C=C\C/C=C\CCC(=O)NCCN(C)C [Compound 5, (4Z,7Z,10Z,13Z,16Z,19Z)—N-(2-(dimethylamino)ethyl)docosa-4,7,10,13,16,19-hexaenamide]
- Neurite Length/Neuron (mean) [2, 3]: 6.7 μm

Compound: CC/C=C\C/C=C\C/C=C\C/C=C\C/C=C\C/C=C\CCC(=O)NCCOC [Compound 6, (4Z,7Z,10Z,13Z,16Z,19Z)—N-(2-methoxyethyl)docosa-4,7,10,13,16,19-hexaenamide]
- Neurite Length/Neuron (mean) [2, 3]: 9.1 μm

Compound: CC/C=C\C/C=C\C/C=C\C/C=C\C/C=C\C/C=C\CCC(=O)NCCc1ccccc1 [Compound 7, (4Z,7Z,10Z,13Z,16Z,19Z)—N-phenethyldocosa-4,7,10,13,16,19-hexaenamide]
- Neurite Length/Neuron (mean) [2, 3]: 41.8 μm
- effect with respect to cortical neurite growth as compared to DHA ([2]; cortical neurons): superior effect
- dosage at which activity is exhibited as compared to DHA and synaptamide [2]: activity at significantly lower dosages

Compound: CC/C=C\C/C=C\C/C=C\C/C=C\C/C=C\C/C=C\CCC(=O)NC(C)(C)CO [Compound 8, (4Z,7Z,10Z,13Z,16Z,19Z)—N-(1-hydroxy-2-methylpropan-2-yl)docosa-4,7,10,13,16,19-hexaenamide]
- Neurite Length/Neuron (mean) [2, 3]: 4.5 μm

Compound: CC/C=C\C/C=C\C/C=C\C/C=C\C/C=C\C/C=C\CCC(=O)N[C@@H](C)CO [Compound 9, (4Z,7Z,10Z,13Z,16Z,19Z)—N—((S)-1-hydroxypropan-2-yl)docosa-4,7,10,13,16,19-hexaenamide]
- Neurite Length/Neuron (mean) [2, 3]: 9.6 μm

Compound: CC/C=C\C/C=C\C/C=C\C/C=C\C/C=C\C/C=C\CCC(=O)N[C@H](C)CO [Compound 10, (4Z,7Z,10Z,13Z,16Z,19Z)—N—((R)-1-hydroxypropan-2-yl)docosa-4,7,10,13,16,19-hexaenamide]
- Neurite Length/Neuron (mean) [2, 3]: 9.5 μm

Compound: CC/C=C\C/C=C\C/C=C\C/C=C\C/C=C\C/C=C\CCC(=O)O [DHA, Docosahexaenoic acid, reference compound]
- Neurite Length/Neuron (mean) ([2]; cortical neurons, DHA 100 nM (FIG. 2), 48 h): 14.5 μm

Compound: CC/C=C\C/C=C\C/C=C\C/C=C\C/C=C\C/C=C\CCC(=O)NCCO [Synaptamide, Docosahexaenoylethanolamide]
- Neurite Length/Neuron (mean) [2, 3]: 29.3 μm
- Neurite Length/Neuron, individual values ([2]; cortical neurons, 10 nM (FIG. 2), 48 h, three individual values): 33.1 μm and 29.2 μm and 25.5 μm
- % remaining ([1]; 0 min): 100%
- % remaining ([1]; 30 min): 5%
- % remaining ([1]; 60 min): 1%
